Test results taken from article PMC6458983 (Cancer Chemotherapy and Pharmacology, 2019).
Read-outs that look alike come from different tables or passages of the source. Marks after values point to notes of the source that are not given here.

What was measured:
[1] = tested on: Japanese patients with NSCLC
Description: Area under the plasma concentration–time curve from 0 to 24 h (AUC0–24) and maximum plasma concentrations (Cmax) were calculated using empirical Bayesian estimates of pharmacokinetic parameters in the final population pharmacokinetic model. AUC0–24 and Cmax were chosen as exposure metrics. The incidence of ILD was summarized for four exposure levels, defined using exposure quartiles after a single dose and at steady state, respectively.
After a single dose, predicted pharmacokinetic values were available for all 51 patients with ILD and all 285 patients without ILD. […] Each pharmacokinetic parameter was quartiled separately.

[2] = cited from earlier work
[3] = Predicted gefitinib exposure (empirical Bayesian estimates), inter- and intra-patient comparison with/without ILD; assay type: in vivo, Japanese patients with NSCLC; settings: human, plasma, oral, 250 mg
Description: When estimating the exposure at first dosing and at steady state, time-dependent pharmacokinetics were not assumed. Thus, both exposures at first dosing and steady state can be theoretically derived if at least one plasma concentration at either first dosing or steady state is available. Individual exposures were predicted based on patients’ dosing history, assuming steady state at 144 h after the first dosing. […] Serum concentration of AGP were likewise determined at first dosing and at steady state.
AUC0–24 and Cmax were chosen as exposure metrics.

[4] = tested on: Japanese patients with NSCLC; assay: Multivariate logistic regression of ILD with gefitinib exposure and other risk factors; assay type: in vivo; settings: for OR estimate (95% CI) for acute ILD: Age (≥55 vs <55 years): gefitinib-treated patients
Description: Patients with and without ILD, in whom pharmacokinetic measurements were available, were included in this analysis. […] A multivariate logistic regression model was used in this analysis; the analysis was performed using SAS version 9.3. […] In addition, the interaction of smoking history and normal lung coverage, and the interaction of the severity of pre-existing ILD and normal lung coverage were also studied. In addition, pharmacokinetic exposure parameters were divided into four quartiles (see “Results”) and investigated as risk factors. For association with ILD risk, the mid-1, mid-2, and high-exposure groups were compared with the low-exposure group.

[5] = sustained elevation of gastric pH; cited from earlier work
human AGP = settings: cited from earlier work
CYP3A4 = settings: in vitro and in vivo studies; cited from earlier work
[6] = after a single dose, third-quartile cut-off of predicted exposure
[7] = Analysis 1 (PK parameter AUC0–24, single dose)
[8] = Analysis 1, gefitinib exposure after a single dose
[9] = Analysis 2 (PK parameter AUC0–24,ss)
[10] = Analysis 2, gefitinib exposure at steady state
[11] = Analysis 3 (PK parameter Cmax, single dose)
[12] = Analysis 3, gefitinib exposure after a single dose
[13] = Analysis 4 (PK parameter Cmax,ss)
[14] = Analysis 4, gefitinib exposure at steady state

COc1cc2ncnc(Nc3ccc(F)c(Cl)c3)c2cc1OCCCN1CCOCC1 [gefitinib]
Proportion of patients with ILD, by AUC quartile ([1]; after a single dose, AUC0–24 Quartile 1): 11.9% | Proportion of patients with ILD, by AUC quartile ([1]; after a single dose, AUC0–24 Quartile 2): 8.3% | Proportion of patients with ILD, by AUC quartile ([1]; after a single dose, AUC0–24 Quartile 3): 8.3% | Proportion of patients with ILD, by AUC quartile ([1]; after a single dose, AUC0–24 Quartile 4): 32.1% | Proportion of patients with ILD, by Cmax quartile ([1]; after a single dose, Cmax Quartile 1): 11.9% | Proportion of patients with ILD, by Cmax quartile ([1]; after a single dose, Cmax Quartile 2): 8.3% | Proportion of patients with ILD, by Cmax quartile ([1]; after a single dose, Cmax Quartile 3): 9.5% | Proportion of patients with ILD, by Cmax quartile ([1]; after a single dose, Cmax Quartile 4): 31.0% | AUC0–24 lower than or equal to the third quartile [1, 6]: ≤ 3855 ng·h/mL | Cmax lower than or equal to the third quartile [1, 6]: ≤ 207 ng/mL | Proportion of patients with ILD, by AUC quartile ([1]; at steady state, AUC0–24,ss Quartile 1): 5.1% | Proportion of patients with ILD, by AUC quartile ([1]; at steady state, AUC0–24,ss Quartile 2): 7.8% | Proportion of patients with ILD, by AUC quartile ([1]; at steady state, AUC0–24,ss Quartile 3): 15.4% | Proportion of patients with ILD, by AUC quartile ([1]; at steady state, AUC0–24,ss Quartile 4): 14.3% | Proportion of patients with ILD, by Cmax quartile ([1]; at steady state, Cmax,ss Quartile 1): 6.4% | Proportion of patients with ILD, by Cmax quartile ([1]; at steady state, Cmax,ss Quartile 2): 6.5% | Proportion of patients with ILD, by Cmax quartile ([1]; at steady state, Cmax,ss Quartile 3): 17.9% | Proportion of patients with ILD, by Cmax quartile ([1]; at steady state, Cmax,ss Quartile 4): 11.7% | increase of AUC of gefitinib ([2]; gefitinib 250 mg in the presence of itraconazole): 78% | increase of AUC of gefitinib ([2]; gefitinib 500 mg in the presence of itraconazole): 61% | Cmax ([3]; after the first dosing, patients with ILD, value printed in box plot Fig. 1a, read-out: Cmax): 214 ng/mL | Cmax ([3]; after the first dosing, patients without ILD, value printed in box plot Fig. 1a, read-out: Cmax): 157 ng/mL | AUC(0-t) ([3]; after the first dosing, patients with ILD, Fig. 1b, read-out: AUC0-24): 3970 ng·h/mL | AUC(0-t) ([3]; after the first dosing, patients without ILD, Fig. 1b, read-out: AUC0-24): 2990 ng·h/mL | Cmax ([3]; intra-patient (n = 19), at the time of ILD development, Fig. 2a, read-out: Cmax): 679 ng/mL | AUC(0-t) ([3]; intra-patient (n = 19), at the time of ILD development, Fig. 2b, read-out: AUC0-24): 13600 ng·h/mL | Cmax ([3]; intra-patient (n = 19), at time other than ILD development (steady state), Fig. 2a, read-out: Cmax): 517 ng/mL | AUC(0-t) ([3]; intra-patient (n = 19), at time other than ILD development (steady state), Fig. 2b, read-out: AUC0-24): 10100 ng·h/mL | Cmax ([3]; steady state, 250 mg once daily, patients without ILD, Fig. 1d, read-out: Cmax,ss): 434 ng/mL | AUC(0-t) ([3]; steady state, patients with ILD, Fig. 1e, read-out: AUC0-24,SS): 10600 ng·h/mL | Cmax ([3]; steady state, patients with ILD, Fig. 1d, read-out: Cmax,ss): 517 ng/mL | AUC(0-t) ([3]; steady state, patients without ILD, Fig. 1e, read-out: AUC0-24,SS): 8830 ng·h/mL | OR estimate (95% CI) for acute ILD: Duration of NSCLC ≥1 vs <0.5 years [4, 7]: 0.37 (0.14–0.95) | OR estimate (95% CI) for acute ILD: Interaction of pre-existing IP and normal lung coverage [4, 7]: 0.37 (0.02–6.82) | OR estimate (95% CI) for acute ILD: Interaction of smoking history and normal lung coverage [4, 7]: 0.6 (0.09–4.12) | OR estimate (95% CI) for acute ILD: Normal lung coverage (10%–50% vs 60%–100%) [4, 7]: 3.39 (0.63–18.31) | OR estimate (95% CI) for acute ILD: Pre-existing IP (yes vs no) [4, 7]: 4.01 (0.37–43.22) | OR estimate (95% CI) for acute ILD: WHO performance status 1 vs 0 [4, 7]: 0.59 (0.2–1.68) | OR estimate (95% CI) for acute ILD: WHO performance status 2–3 vs 0 [4, 7]: 1.75 (0.48–6.33) | OR estimate (95% CI) for acute ILD: Age (≥55 vs <55 years) [4, 7]: 1.86 (0.5–6.88) | OR estimate (95% CI) for acute ILD: AUC0–24 Quartile 2 vs Quartile 1 [4, 8]: 0.68 (0.2–2.32) | OR estimate (95% CI) for acute ILD: AUC0–24 Quartile 3 vs Quartile 1 [4, 8]: 0.62 (0.18–2.12) | OR estimate (95% CI) for acute ILD: AUC0–24 Quartile 4 vs Quartile 1 [4, 8]: 3.35 (1.14–9.88) | OR estimate (95% CI) for acute ILD: Duration of NSCLC ≥1 vs <0.5 years [4, 9]: 0.57 (0.19–1.69) | OR estimate (95% CI) for acute ILD: Interaction of pre-existing IP and normal lung coverage [4, 9]: 0.25 (0.01–6.8) | OR estimate (95% CI) for acute ILD: Interaction of smoking history and normal lung coverage [4, 9]: 0.14 (0.01–1.52) | OR estimate (95% CI) for acute ILD: Pre-existing IP (yes vs no) [4, 9]: 4.49 (0.33–60.44) | OR estimate (95% CI) for acute ILD: WHO performance status 1 vs 0 [4, 9]: 0.55 (0.19–1.62) | OR estimate (95% CI) for acute ILD: WHO performance status 2–3 vs 0 [4, 9]: 1.37 (0.35–5.39) | OR estimate (95% CI) for acute ILD: Age (≥55 vs <55 years) [4, 9]: 1.54 (0.36–6.6) | OR estimate (95% CI) for acute ILD: Normal lung coverage (10%–50% vs 60%–100%) ([4]; Analysis 2 (PK parameter AUC0–24,ss), p<0.05): 9.47 (1.14–78.84)* | OR estimate (95% CI) for acute ILD: AUC0–24,ss Quartile 2 vs Quartile 1 [4, 10]: 1.2 (0.27–5.32) | OR estimate (95% CI) for acute ILD: AUC0–24,ss Quartile 3 vs Quartile 1 [4, 10]: 1.71 (0.42–6.94) | OR estimate (95% CI) for acute ILD: AUC0–24,ss Quartile 4 vs Quartile 1 [4, 10]: 2.09 (0.5–8.74) | OR estimate (95% CI) for acute ILD: Duration of NSCLC ≥1 vs <0.5 years [4, 11]: 0.32 (0.12–0.83) | OR estimate (95% CI) for acute ILD: Interaction of pre-existing IP and normal lung coverage [4, 11]: 0.51 (0.03–9.56) | OR estimate (95% CI) for acute ILD: Interaction of smoking history and normal lung coverage [4, 11]: 0.56 (0.08–3.96) | OR estimate (95% CI) for acute ILD: Normal lung coverage (10%–50% vs 60%–100%) [4, 11]: 3.56 (0.64–19.85) | OR estimate (95% CI) for acute ILD: Pre-existing IP (yes vs no) [4, 11]: 3.56 (0.33–38.74) | OR estimate (95% CI) for acute ILD: WHO performance status 1 vs 0 [4, 11]: 0.62 (0.21–1.8) | OR estimate (95% CI) for acute ILD: WHO performance status 2–3 vs 0 [4, 11]: 1.89 (0.52–6.85) | OR estimate (95% CI) for acute ILD: Age (≥55 vs <55 years) [4, 11]: 2.13 (0.56–8.04) | OR estimate (95% CI) for acute ILD: Cmax Quartile 2 vs Quartile 1 [4, 12]: 0.51 (0.14–1.8) | OR estimate (95% CI) for acute ILD: Cmax Quartile 3 vs Quartile 1 [4, 12]: 0.5 (0.14–1.72) | OR estimate (95% CI) for acute ILD: Cmax Quartile 4 vs Quartile 1 [4, 12]: 3.03 (1–9.17) | OR estimate (95% CI) for acute ILD: Duration of NSCLC ≥1 vs <0.5 years [4, 13]: 0.59 (0.2–1.75) | OR estimate (95% CI) for acute ILD: Interaction of pre-existing IP and normal lung coverage [4, 13]: 0.18 (0.01–4.98) | OR estimate (95% CI) for acute ILD: Interaction of smoking history and normal lung coverage [4, 13]: 0.17 (0.02–1.89) | OR estimate (95% CI) for acute ILD: Pre-existing IP (yes vs no) [4, 13]: 5.21 (0.39–70.35) | OR estimate (95% CI) for acute ILD: WHO performance status 1 vs 0 [4, 13]: 0.57 (0.19–1.68) | OR estimate (95% CI) for acute ILD: WHO performance status 2–3 vs 0 [4, 13]: 1.34 (0.33–5.39) | OR estimate (95% CI) for acute ILD: Age (≥55 vs <55 years) [4, 13]: 1.69 (0.4–7.17) | OR estimate (95% CI) for acute ILD: Normal lung coverage (10%–50% vs 60%–100%) ([4]; Analysis 4 (PK parameter Cmax,ss), p<0.05): 9.4 (1.11–79.48)* | OR estimate (95% CI) for acute ILD: Cmax,ss Quartile 2 vs Quartile 1 [4, 14]: 0.69 (0.16–3.02) | OR estimate (95% CI) for acute ILD: Cmax,ss Quartile 3 vs Quartile 1 [4, 14]: 1.72 (0.47–6.27) | OR estimate (95% CI) for acute ILD: Cmax,ss Quartile 4 vs Quartile 1 [4, 14]: 1.07 (0.27–4.29) | decrease of bioavailability [5]: 47% | binding to human AGP (human AGP; at 0.05 mg/mL): 83.0% | binding to human AGP (human AGP; at 8 mg/mL): 68.5% | enzyme involved in the metabolic clearance (CYP3A4): CYP3A4 is the major enzyme
